# Results: article PMC9862597, “Anti-Colorectal Cancer Effects of a Novel Camptothecin Derivative PCC0208037 In Vitro and In Vivo” (Pharmaceuticals, 2022)
# Target: T1, recombinant Topo I (Homo sapiens, UniProt P11387)
# T1 construct: purchased TopoGEN, Inc (Buena Vista, CO, USA) TG1018
# T1 sequence (P11387 1-765): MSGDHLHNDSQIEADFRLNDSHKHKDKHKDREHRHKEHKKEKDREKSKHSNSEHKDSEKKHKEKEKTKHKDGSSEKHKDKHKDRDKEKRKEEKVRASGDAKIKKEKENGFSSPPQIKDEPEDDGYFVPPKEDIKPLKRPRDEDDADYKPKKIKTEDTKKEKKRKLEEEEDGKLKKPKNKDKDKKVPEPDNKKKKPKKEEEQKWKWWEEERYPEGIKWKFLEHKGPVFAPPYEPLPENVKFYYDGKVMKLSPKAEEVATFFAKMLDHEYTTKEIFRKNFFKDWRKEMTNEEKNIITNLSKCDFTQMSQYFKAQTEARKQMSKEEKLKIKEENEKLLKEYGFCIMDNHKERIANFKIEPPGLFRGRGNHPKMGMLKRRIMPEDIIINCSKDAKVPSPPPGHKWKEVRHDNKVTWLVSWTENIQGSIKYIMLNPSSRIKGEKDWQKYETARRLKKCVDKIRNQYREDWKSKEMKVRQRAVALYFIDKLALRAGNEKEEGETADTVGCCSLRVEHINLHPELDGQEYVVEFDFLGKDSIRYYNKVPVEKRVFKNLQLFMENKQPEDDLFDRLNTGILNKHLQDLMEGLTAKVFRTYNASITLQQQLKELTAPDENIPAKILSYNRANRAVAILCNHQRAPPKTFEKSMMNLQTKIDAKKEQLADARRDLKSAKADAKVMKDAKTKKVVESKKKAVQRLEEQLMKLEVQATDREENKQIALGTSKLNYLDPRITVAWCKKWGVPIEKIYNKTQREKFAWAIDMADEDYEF
# Experiment: Topoisomerase I activity assay (DNA relaxation)
# Format: biochemical
# Details: PCC0208037 100 and 10 nmol/L, SN-38 100 nmol/L, CPT-11 100 nmol/L; 30 min, 37 °C
# Experimental: To determine whether PCC0208037 inhibited Topo I activity, a DNA relaxation assay was conducted. In this assay, supercoiled plasmid DNA was relaxed and nicked by recombinant Topo I, while no nicked DNA would be found when the Topo I enzyme was inhibited.
# A Topoisomerase I Drug Screening Kit was used to detect the inhibitory activity of PCC0208037 against Topo I in the cell-free system. 1 IU Topo I and 250 ng of supercoiled plasmid DNA were pre-incubated with DMSO, PCC0208037 (100 nmol/L and 10 nmol/L), SN-38(100 nmol/L), or CPT (100 nmol/L) in a reaction buffer with a final volume of 20 μL and incubated for 30 min at 37 °C; then, the reaction was stopped by the addition of 2 ul of 10% SDS. Then, proteinase K was added to 50 ug/mL, incubated for 15 min at 37 °C, and 0.1 vol. of a loading buffer (0.25% bromophenol blue, 50% glycerol) was added. The supercoiled, relaxed, or nicked DNA was separated by 1% agarose gel in a 1 TAE (Tris-Acetate-EDTA) buffer. Ethidium bromide-stained agarose gel was photographed using Gel Doc XR.
# Figure 4 Inhibition of Topo I activity by PCC0208037. […] Plasmid DNA was separated by an agarose gel and stained with ethidium bromide.
smiles,measurement,value
CCc1c2c(nc3ccc(O)cc13)-c1cc3c(c(=O)n1C2)COC(=O)[C@@]3(CC)OC(=O)Nc1nc(=O)n([C@@H]2O[C@H](C)[C@@H](O)[C@H]2O)cc1F [PCC0208037],inhibition of Topo I activity (supercoiled plasmid DNA relaxation),dose-dependently increased the presence of supercoiled DNA
